Experimental data published in article PMC2263054, “Functional evolution of the vitamin D and pregnane X receptors” (BMC Evolutionary Biology, 2007).
Like-named read-outs stand apart in the source and are kept apart here.

How the values were obtained:
[1] = target: T1, Human VDR (Homo sapiens, UniProt P11473); test: luciferase reporter transactivation assay in HepG2-NTCP cells, full-length hVDR with CYP3A4-PXRE-Luc; conditions: HepG2-NTCP cells, luciferase reporter; unit not given; also cells saying No effect
T1 sequence (P11473 1-427): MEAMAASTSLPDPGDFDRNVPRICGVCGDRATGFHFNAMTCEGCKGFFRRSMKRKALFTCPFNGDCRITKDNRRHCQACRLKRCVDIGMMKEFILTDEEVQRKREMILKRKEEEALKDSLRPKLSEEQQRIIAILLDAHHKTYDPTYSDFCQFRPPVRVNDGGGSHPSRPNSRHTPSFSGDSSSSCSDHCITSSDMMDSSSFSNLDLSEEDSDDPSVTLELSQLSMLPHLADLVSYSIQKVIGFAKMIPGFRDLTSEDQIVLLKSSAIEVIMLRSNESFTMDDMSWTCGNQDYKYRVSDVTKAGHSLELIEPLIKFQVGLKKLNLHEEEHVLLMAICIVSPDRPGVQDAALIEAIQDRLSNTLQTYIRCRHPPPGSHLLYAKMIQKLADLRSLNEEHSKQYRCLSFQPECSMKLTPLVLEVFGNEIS

[2] = target: T2, Mouse VDR (Mus musculus, UniProt P48281); test: luciferase reporter transactivation assay in HepG2-NTCP cells, full-length mVDR with CYP3A4-PXRE-Luc; conditions: HepG2-NTCP cells, luciferase reporter; unit not given; also cells saying No effect
T2 sequence (P48281 1-422): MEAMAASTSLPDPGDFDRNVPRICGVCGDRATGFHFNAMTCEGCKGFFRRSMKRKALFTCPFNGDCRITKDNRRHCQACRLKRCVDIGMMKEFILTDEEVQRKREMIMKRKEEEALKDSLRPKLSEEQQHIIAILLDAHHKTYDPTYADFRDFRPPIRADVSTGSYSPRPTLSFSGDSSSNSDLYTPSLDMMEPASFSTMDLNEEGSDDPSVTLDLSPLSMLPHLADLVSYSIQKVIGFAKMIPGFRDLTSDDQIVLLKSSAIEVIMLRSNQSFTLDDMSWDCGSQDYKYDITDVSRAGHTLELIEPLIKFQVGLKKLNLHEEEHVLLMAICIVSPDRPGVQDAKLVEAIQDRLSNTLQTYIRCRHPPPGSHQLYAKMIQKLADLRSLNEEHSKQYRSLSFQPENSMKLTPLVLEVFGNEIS

[3] = target: T3, Sea lamprey VDR (Petromyzon marinus, UniProt Q7ZZY9); assay type: cell-based; conditions: HepG2-NTCP cells, luciferase reporter; unit not given; also cells saying No effect
T3 sequence (Q7ZZY9 92-406): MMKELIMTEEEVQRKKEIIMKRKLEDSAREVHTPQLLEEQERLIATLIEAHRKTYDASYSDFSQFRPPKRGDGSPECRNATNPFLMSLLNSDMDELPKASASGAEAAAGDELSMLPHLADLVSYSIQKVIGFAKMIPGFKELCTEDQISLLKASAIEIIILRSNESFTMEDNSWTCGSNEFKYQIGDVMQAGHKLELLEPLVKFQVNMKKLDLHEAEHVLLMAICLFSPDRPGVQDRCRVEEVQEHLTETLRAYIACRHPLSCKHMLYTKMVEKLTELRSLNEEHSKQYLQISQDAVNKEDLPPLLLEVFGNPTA

[4] = test system: β-actin; test: zebrafish in vivo liver transcription, semi-quantitative RT-PCR: β-actin
Method: (§1) Adult zebrafish were purchased from a commercial fish supplier and acclimatized for at least two-weeks in 20 L tanks with flow-through freshwater at 22°C. A single dose of 15 mg/kg of 5α-cyprinol, 5β-cyprinol 27-sulfate, 5α-scymnol or 5β-scymnol-27 sulfate, dissolved in saline, was injected intraperitoneally. A control group was injected with saline. After 48 hr, the animals were decapitated and livers of three fish (n = 5 each group) were removed, pooled and weighed, totalizing 15 fish per group. Fish were not fed throughout the experimental period. […].
(§2) To study the transcription of CYP3C1, ABCB5, PXR, GAPDH and β-actin genes in zebrafish, initial fragments of these genes were identified (Genbank: AW202769, Genbank: BQ284593, Genbank: AAM22215, Genbank: BC083506, Genbank: AF057040, respectively). The PCR primers for CYP3C1 were designed using MacVector Software and primers for MDR1 were designed using Primer 3 Software (Whitehead Institute for Biomedical Research; [75]). Primer pairs for amplifying CYP3C1 fragment were 5'-[…]-3' (sense) and 5'-[…]-3' (antisense) and for amplifying ABCB5 were 5'-[…]-3' (sense) and 5'-[…]-3' (antisense). The PCR primers for PXR were 5'-[…]-3' (sense) and 5'-[…]-3' (antisense), for amplifying GAPDH were 5'-[…]-3' (sense) and 5' […] 3' (antisense) and for β-actin were 5'-[…]-3' (sense) and 5'-[…]-3' (antisense). RNA was isolated using Trizol (Invitrogen) according to manufacturer's instructions. Purity and concentration of RNA of each sample were verified at 260 nm. The RNA integrity was checked by non-denaturing gel electrophoresis using 1 μg of total RNA in each sample.
(§3) Two micrograms of total RNA were reversed transcribed using Ominiscript RT Kit (Qiagen, Valencia, CA, USA). cDNA concentration was checked at 260 nm, and the amount adjusted to 1 μg to perform semi-quantitative RT-PCR. The expected size of the PXR, Cyp3C1, abcb5, GAPDH and β-actin fragments were 577, 477, 218, 234 and 550 bp, respectively. Biotools DNA polymerase (Biotools B&M Labs, S.A., Madrid, Spain) kit was used for the PCR reaction using a thermocycler Personal Mastercycler (Eppendörf) with the following PCR program: 5 cycles of 94°C for 5 s, 72°C for 35 s; 5 cycles of 94°C for 5 s, 70°C for 10 s, 72°C for 35 s; and 23, 24, 35, 15 and 24 cycles (PXR, Cyp3C1, abcb5, GAPDH and β-actin, respectively) of 94°C for 5 s, 61, 54, 48, 49 and 61°C for 10 s (PXR, Cyp3C1, abcb5, GAPDH and β-actin, respectively), and 72°C for 35 s. The PXR, CYP3C1, ABCB5 and GAPDH transcript levels were quantified using Gel-Quant™ (Multiplexed Biotechologies) and β-actin was used to normalize the data. The Shapiro-Wilk W test was used to evaluate normality. When data were parametric the analysis was performed using Student t test; otherwise Mann Whitney U test was applied. […]

[5] = test system: CYP3C1; test: zebrafish in vivo liver transcription, semi-quantitative RT-PCR: CYP3C1
Method: as §1, §2, §3

[6] = test system: zebrafish PXR; conditions: cited from earlier work
[7] = zebrafish, 15 mg/kg intraperitoneally, single dose, 48 hr

Row | Compound | Human VDR EC50 ± SD [1] | Mouse VDR EC50 ± SD [2] | Sea lamprey VDR EC50 ± SD [3] | liver transcription of β-actin [4, 7] [arbitrary units] | liver transcription of CYP3C1 [5, 7] | activity at recombinant zebrafish PXR ([6]; ref [29],[53]) | liver transcription of β-actin ([4]; ip, 15 mg/kg, 48 h) [arbitrary units] | liver transcription of CYP3C1 ([5]; ip, 15 mg/kg, 48 h) | activity at recombinant zebrafish PXR [6]
1 | C[C@H](CCCC(CO)COS(=O)(=O)O)[C@H]1CC[C@H]2[C@@H]3[C@H](O)C[C@H]4C[C@H](O)CC[C@]4(C)[C@H]3C[C@H](O)[C@]12C (stereo partly drawn) [5α-Cyprinol 27-sulfate] | No effect | No effect | No effect | 38.2 ± 20.7 | 1.71 ± 0.50 arbitrary units normalized to β-actin | efficacious activator of recombinant zebrafish PXR | – | – | –
2 | C[C@H](CCCC(CO)CO)[C@H]1CC[C@H]2[C@@H]3[C@H](O)C[C@H]4C[C@H](O)CC[C@]4(C)[C@H]3C[C@H](O)[C@]12C [5α-Cyprinol, 5α-cholestan-3α,7α,12α,26,27-pentol] | No effect | No effect | No effect | – | – | – | 44.7 ± 19.6 | 1.33 ± 0.33 arbitrary units normalized to β-actin | both inactive at recombinant zebrafish PXR
